{"source": "ChEMBL document CHEMBL6134851", "about": "“Comparative Study on Covalent and Noncovalent Endogenous Albumin-Binding β-Glucuronidase-Activated SN38 Prodrugs for Antitumor Efficacy” (J Med Chem, 2025)", "key": {"[1]": {"tested_on": "HCT-116", "test": "Antitumor activity against human HCT-116 cells xenografted in female BALB/cA nude mouse model assessed as relative tumor proliferation rate at 15 mg/kg, iv administered twice per week measured on 107 days relative to control", "type": "functional", "settings": "time 107 day"}, "[2]": {"test": "Toxicity in female BALB/cA nude mouse assessed as pulmonary damage at 15 mg/kg, iv BID for 35 days by H and E staining based analysis", "type": "organism-based", "settings": "in vivo, 840 h, time 35 day"}, "[3]": {"tested_on": "HCT-116", "test": "Antitumor activity against human HCT-116 cells xenografted in female BALB/cA nude mouse model assessed as relative tumor proliferation rate at 15 mg/kg, iv administered twice per week measured after 107 days", "type": "functional, organism-based", "settings": "time 107.0 day"}, "[4]": {"test": "Toxicity in female BALB/cA nude mouse assessed as appearance of loss of alveolar architecture at 15 mg/kg, iv BID for 35 days by H and E staining based analysis", "type": "organism-based", "settings": "in vivo, 840 h, time 35 day"}, "[5]": {"tested_on": "BXPC-3", "test": "Antitumor activity against human BXPC-3 cells xenografted in female BALB/cA nude mouse model assessed as suppression of tumor growth by measuring relative tumor proliferation rate at 38 mg/kg, iv measured after 24 days relative to control", "type": "functional", "settings": "time 24 day"}, "[6]": {"test": "Toxicity in female BALB/cA nude mouse assessed as effect on body weight loss at 15 mg/kg, iv administered twice per week measured after 107 days", "type": "organism-based", "settings": "in vivo, 2568 h, time 107 day"}, "[7]": {"tested_on": "BXPC-3", "test": "Antitumor activity against human BXPC-3 cells xenografted in female BALB/cA nude mouse model assessed as suppression of tumor growth by measuring relative tumor proliferation rate at 38 mg/kg, iv measured after 35 days", "type": "functional, organism-based", "settings": "time 35.0 day"}, "[8]": {"test": "Toxicity in female BALB/cA nude mouse assessed as appearance of fibrosis in heart at 15 mg/kg, iv measured after 24 hrs by H and E staining based analysis", "type": "organism-based", "settings": "in vivo"}, "[9]": {"test": "Toxicity in female BALB/cA nude mouse assessed as damage in lung at 15 mg/kg, iv measured after 24 hrs by H and E staining based analysis", "type": "organism-based", "settings": "in vivo"}, "[10]": {"test": "Toxicity in female BALB/cA nude mouse assessed as damage in heart at 15 mg/kg, iv measured after 24 hrs by H and E staining based analysis", "type": "organism-based", "settings": "in vivo"}, "[11]": {"test": "Toxicity in female BALB/cA nude mouse assessed as appearance of alveolar wall thickening at 15 mg/kg, iv BID for 35 days by H and E staining based analysis", "type": "organism-based", "settings": "in vivo, 840 h, time 35 day"}, "[12]": {"test": "in vivo", "settings": "female, BALB/c, mouse, 15 mg/kg"}, "[13]": {"test": "Toxicity in female BALB/cA nude mouse assessed as necrosis in tumor tissue at 15 mg/kg, iv measured after 24 hrs by H and E staining based analysis", "type": "organism-based", "settings": "in vivo"}, "[14]": {"test": "Toxicity in female BALB/cA nude mouse assessed as appearance of fibrosis in lung at 15 mg/kg, iv measured after 24 hrs by H and E staining based analysis", "type": "organism-based", "settings": "in vivo"}, "[15]": {"test": "Prodrug release in female BALB/c nude mouse tumor assessed as (S)-4,11-diethyl-4,9-dihydroxy-1,12-dihydro-14H-pyrano[3',4':6,7]indolizino[1,2-b]quinoline-3,14(4H)-dione accumulation at 15 mg/kg measured after 1 hr by HPLC analysis", "type": "ADME, organism-based, Neoplasm", "settings": "in vivo"}, "[16]": {"test": "Cmax in female BALB/c mouse at 15 mg/kg measured up to 5 hrs by HPLC analysis", "type": "ADME, organism-based", "settings": "in vivo"}, "[17]": {"test": "Toxicity in female BALB/cA nude mouse assessed as mortality at 15 mg/kg, iv administered twice per week measured after 107 days", "type": "organism-based", "settings": "in vivo, 2568 h, time 107 day"}}, "note": "Active and inactive are the calls of the source. No cut-off for these calls is given here."}
{"smiles": "CCc1c2c(nc3ccc(OC(=O)N4CCC(N5CCCCC5)CC4)cc13)-c1cc3c(c(=O)n1C2)COC(=O)[C@]3(O)CC", "note": "[IRINOTECAN]", "values": [{"measurement": "Activity", "setting": "[1]", "result": 50.36, "unit": "%"}, {"measurement": "Activity", "setting": "[2]", "result": "Toxic"}, {"measurement": "Activity", "setting": "[3]", "result": "inactive"}, {"measurement": "Activity", "setting": "[4]", "result": "Toxic"}, {"measurement": "Activity", "setting": "[5]", "result": 43.53, "unit": "%"}, {"measurement": "Activity", "setting": "[6]", "result": "Toxic"}, {"measurement": "Activity", "setting": "[7]", "result": "inactive"}, {"measurement": "Activity", "setting": "[8]", "result": "Toxic"}, {"measurement": "Activity", "setting": "[9]", "result": "Toxic"}, {"measurement": "Activity", "setting": "[10]", "result": "Toxic"}, {"measurement": "Activity", "setting": "[11]", "result": "Toxic"}, {"measurement": "AUC(0-t) at 5 h", "setting": "[12]", "result": 3120, "unit": "ng·h/mL"}, {"measurement": "Activity", "setting": "[13]", "result": "Toxic"}, {"measurement": "Activity", "setting": "[14]", "result": "Toxic"}, {"measurement": "Drug metabolism", "setting": "[15]", "result": 0.032, "unit": "% ID/g"}, {"measurement": "Cmax", "setting": "[16]", "result": 3040, "unit": "ng/mL"}, {"measurement": "Activity", "setting": "[17]", "result": "Non-toxic"}]}
